From patent US20240025924A1, “HETEROCYCLE SUBSTITUTED KETONE DERIVATIVE, AND COMPOSITION AND MEDICINAL USE THEREOF” (SHANGHAI HAIYAN PHARMACEUTICAL TECHNOLOGY CO., LTD., priority 2021, published 2024)

Legend:
hERG potassium channel = biological target: T1, hERG potassium channel (Homo sapiens, UniProt Q12809); test: Inhibition of hERG potassium channel current, manual patch clamp in CHO cells stably expressing hERG; assay type: cell-based; settings: whole-cell patch clamp, room temperature
T1 construct: expressed in transfected cells; host or cells: CHO (Chinese hamster ovary) cells stably expressing hERG
T1 sequence (Q12809 whole entry): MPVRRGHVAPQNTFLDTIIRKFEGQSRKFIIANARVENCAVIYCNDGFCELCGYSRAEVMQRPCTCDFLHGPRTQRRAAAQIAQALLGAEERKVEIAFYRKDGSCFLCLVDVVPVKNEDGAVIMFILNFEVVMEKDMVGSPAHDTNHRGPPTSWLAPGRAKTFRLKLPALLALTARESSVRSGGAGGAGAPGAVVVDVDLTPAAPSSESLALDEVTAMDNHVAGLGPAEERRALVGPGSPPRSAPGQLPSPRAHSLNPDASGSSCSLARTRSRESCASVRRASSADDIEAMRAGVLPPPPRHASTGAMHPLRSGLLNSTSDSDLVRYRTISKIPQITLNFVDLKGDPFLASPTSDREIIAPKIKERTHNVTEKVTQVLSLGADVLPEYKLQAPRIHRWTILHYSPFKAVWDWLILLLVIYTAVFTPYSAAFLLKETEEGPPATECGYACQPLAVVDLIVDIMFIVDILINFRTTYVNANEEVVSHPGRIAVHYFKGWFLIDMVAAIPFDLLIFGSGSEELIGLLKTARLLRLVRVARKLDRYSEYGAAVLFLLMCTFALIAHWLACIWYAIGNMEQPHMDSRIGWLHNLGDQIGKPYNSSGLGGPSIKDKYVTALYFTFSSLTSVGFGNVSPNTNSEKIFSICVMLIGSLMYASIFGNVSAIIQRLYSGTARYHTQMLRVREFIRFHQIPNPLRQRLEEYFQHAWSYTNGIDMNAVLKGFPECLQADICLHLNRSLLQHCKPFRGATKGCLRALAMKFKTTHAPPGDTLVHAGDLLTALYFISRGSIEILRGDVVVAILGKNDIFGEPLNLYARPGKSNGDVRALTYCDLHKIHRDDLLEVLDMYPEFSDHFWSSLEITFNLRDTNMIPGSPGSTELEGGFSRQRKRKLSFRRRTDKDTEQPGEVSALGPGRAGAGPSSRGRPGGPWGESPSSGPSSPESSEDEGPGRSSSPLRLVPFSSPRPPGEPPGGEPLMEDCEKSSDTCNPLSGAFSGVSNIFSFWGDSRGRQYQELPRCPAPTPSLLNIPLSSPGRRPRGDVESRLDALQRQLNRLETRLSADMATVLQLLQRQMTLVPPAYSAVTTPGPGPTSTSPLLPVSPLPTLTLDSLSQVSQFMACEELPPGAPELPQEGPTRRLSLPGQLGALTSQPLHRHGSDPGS
Method: The electrophysiological manual patch clamp method was used to test the effect of the compounds on the current of hERG potassium channel (human Ether-a-go-go Related Gene potassium channel).
CHO cells stably expressing hERG were cultured in a cell Petri dish having a diameter of 35 mm, placed in an incubator at 37° C. and with 5% CO2, and passaged every 48 hours at a ratio of 1:5. The culture medium formula was: 90% F12 (Invitrogen), 10% fetal bovine serum (Gibco), 100 μg/mL G418 (Invitrogen), and 100 μg/mL Hygromycin B (Invitrogen). On the day of the test, the cell culture medium was sucked away, and the cells were washed with extracellular fluid once. Then 0.25% Trypsin-EDTA (Invitrogen) solution was added, and the cells was digested at room temperature for 3-5 min. The digestive fluid was sucked away, and the cells were resuspended with extracellular fluid, and transferred to the experimental dish for electrophysiological recording.
On the day of test, the compounds were prepared using DMSO into mother solution with concentration of 20 mM, and then serial dilution with DMSO was performed three times, i.e., 10 μL of the solution was added to 20 μL of DMSO, then 10 μL of the serial diluted solution of the compounds in DMSO was added to 4990 μL of extracellular fluid, and 500 times of dilution was performed to obtain the final concentration to be tested.
The hERG potassium channel currents of CHO (Chinese hamster ovary) cells stably expressing hERG potassium channels were recorded using whole-cell patch clamp technique at room temperature. The glass microelectrodes were made from glass electrode blanks (BF150-86-10, Sutter) by pulling through a puller, and the tip resistance was about 2-5 MΩ after filling the electrode with the inner liquid. The glass microelectrodes could be connected to a patch clamp amplifier by inserting them into the amplifier probe. Clamp voltage and data recording were controlled and recorded by a computer using software pClamp 10 with a sampling frequency of 10 kHz and a filtering frequency of 2 kHz. After obtaining a whole-cell recording, the cell was clamped at −80 mV, and the step voltage inducing hERG potassium current (IhERG) was given a depolarizing voltage from −80 mV to +20 mV for 2 s, and repolarized to −50 mV for 1 s, then returning to −80 mV. This voltage stimulus was given every 10 s. After it is determined that the potassium hERG current was stable (for 1 min), the dosing process was initiated. The compounds were administered for at least 1 min at each tested concentration, and at least 2 cells (n≥2) were tested at each concentration.
Data analysis and processing were conducted using softwares pClamp 10, GraphPad Prism 5, and Excel. The degree of inhibitory activity of different compound concentrations on hERG potassium current (peak value of hERG tail current induced at −50 mV) was calculated using the following formula: Inhibition %=[1−(I/Io)]×100%. Among them, Inhibition % represents the percentage inhibition of the compound on hERG potassium current, and I and Io represent the amplitude of hERG potassium current after and before dosing, respectively.
IC50 of the compounds was calculated using software GraphPad Prism 5 by fitting the following equation: Y=Bottom+(Top−Bottom)/(1+10^(Log IC50−X)*HillSlope). Among them, X is the Log value of the detection concentration of test material, Y is the inhibition percentage at the corresponding concentration, and Bottom and Top are the minimum and maximum inhibition percentages, respectively.

MV-4-11 cell = test: Cell proliferation assay (Cell Titer-Glo); assay type: cell-based; settings: inhibition of MV-4-11 cell proliferation, Cell Titer-Glo on day 4
Method: MV 411 cells (20000 cells/well) were inoculated and cultured in 96 (Corning #3916) well plates, and the medium was 80 μL/well (IMDM with 10% fetal bovine serum (FBS), Gibco #10099-141C). After 24 hours of incubation, 20 μL of the compounds of the present invention configured to different concentrations (DMSO final concentration of 0.1% (V/V)) were added. On day 4, 60 μL of Cell Titer-Glo (Promega #G7558) was added to each well and mixed at 80 rpm, 25° C., 15 min, and the fluorescence values were detected by Victor X5 (PE).

SHP-2 enzyme = biological target: T2, SHP-2 enzyme (Homo sapiens, UniProt Q06124); test: Phosphatase activity assay (Homogeneous Full Length SHP-2 Assay Kit, DiFMUP substrate); assay type: biochemical; settings: full length SHP-2 activated with 0.5 μM SHP-2 activating Peptide; 1 hour co-incubation; DiFMUP 50 μM, 30 min
T2 construct: Homogeneous Full Length SHP-2 Assay Kit (BPS Bioscience #79330); purchased BPS Bioscience 79330
T2 sequence (Q06124 1-593): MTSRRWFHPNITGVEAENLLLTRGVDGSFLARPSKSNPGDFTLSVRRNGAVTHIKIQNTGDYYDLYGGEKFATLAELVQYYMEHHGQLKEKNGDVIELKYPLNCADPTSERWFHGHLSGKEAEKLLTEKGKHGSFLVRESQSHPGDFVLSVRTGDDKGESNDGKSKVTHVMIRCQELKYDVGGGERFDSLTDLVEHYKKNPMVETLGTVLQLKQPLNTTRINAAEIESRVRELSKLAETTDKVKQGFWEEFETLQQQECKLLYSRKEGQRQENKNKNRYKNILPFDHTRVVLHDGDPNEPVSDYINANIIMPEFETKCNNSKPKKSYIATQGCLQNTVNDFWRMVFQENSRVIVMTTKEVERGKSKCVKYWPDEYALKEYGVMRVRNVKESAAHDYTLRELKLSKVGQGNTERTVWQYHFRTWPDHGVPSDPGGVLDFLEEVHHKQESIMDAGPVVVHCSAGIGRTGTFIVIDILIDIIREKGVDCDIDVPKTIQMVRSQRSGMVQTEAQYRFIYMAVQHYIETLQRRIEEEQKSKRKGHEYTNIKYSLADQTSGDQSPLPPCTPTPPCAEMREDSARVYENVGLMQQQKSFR
Method: IC50 values were assayed using Homogeneous Full Length SHP-2 Assay Kit (BPS Bioscience #79330), which uses 6,8-difluoro-4-methylumbelliferone phosphate (DiFMUP) as the reaction substrate. SHP2 enzyme solution (diluted to 0.04 ng/μL with 1*buffer) was mixed with 0.5 μM SHP-2 activating Peptide in a 1*buffer solution containing 2.5 mM DTT to activate PTP. At the same time, DMSO (0.1% (V/V)) or the compounds (concentration: 0.5 nM to 1 μM) were added, mixed and co-incubated for 1 hour. DiFMUP (50 μM, total reaction system volume of 20 μL) was added, and the reaction was started. After 30 min of incubation, the fluorescence intensity of the reaction system (excitation wavelength: 350 nm, emission wavelength: 460 nm) was measured by Tecan Infinite M1000.

[1] = system: human esophageal squamous carcinoma cell line KYSE-520; test: KYSE-520 subcutaneous transplantation tumor model; assay type: in vivo; settings: KYSE-520 subcutaneous tumor, female Balb/C nude mice, 10 mg/kg, PO, QD
Method: The human esophageal squamous carcinoma cell line KYSE-520 was cultured in RPMI 1640 containing 10% fetal bovine serum placed in a 37° C., 5% CO2 sterile incubator. The cells were passaged 2-3 times per week, digested with 0.25% trypsin-EDTA. After terminating the digestion with the above complete medium, the system was centrifugated at 1000 rpm for 5 min. The supernatant was discarded, and the cells were resuspended and passaged at a ratio of 1:3-1:5. Cells in logarithmic phase were collected, resuspended in serum-free RPMI 1640, counted and adjusted to the appropriate density.
KYSE-520 cells (3×10^6 cells/mouse) were inoculated into the right ventral dorsum of approximately 6- to 8-week-old female Balb/C nude mice. Then the tumors grew to an average volume of about 200 mm^3, the tumors were randomly grouped according to the tumor volume and body weight (n=8-10). Administration was started on the day of grouping and was performed once daily, defining the day of grouping as day 0. Tumor diameters were measured twice a week with vernier calipers, and tumor volume was calculated by the formula TV (mm^3)=0.5×a×b^2, with a and b representing the long and short diameters (in mm) of the tumors, respectively. When the average tumor volume of the control group was about 800 mm^3, the experiment was terminated. The tumor tissues were isolated and weighed to calculate the tumor weight proliferation rate with T/Cweight %=TWT/TWC %, and TWT and TWC represent the tumor weight of the administered group and the vehicle control group, respectively.

Structure (SMILES) | IC50 (hERG potassium channel) | IC50 (MV-4-11 cell; Homo sapiens, MV4-11, 96 h) | IC50 (SHP-2 enzyme) | T/Cweight (tumor weight proliferation rate) [1] | IC50 (MV-4-11 cell)
Nc1nc(N2CCC3(CC2)Cc2cc(F)ccc2C3N)nnc1C(=O)N1CCCn2nccc21 (stereo not drawn) [Compound 59] | > 30000 nM | 253 nM | 6 nM |  | 
Nc1ccc2c(n1)CCN2C(=O)c1ncc(N2CCC3(CC2)Cc2ccccc2C3N)nc1N (stereo not drawn) [Compound 60] |  | 46 nM | 4 nM | 44.62% | 
Nc1nc2c(s1)CN(C(=O)c1ncc(N3CCC4(CC3)Cc3ccccc3[C@H]4N)nc1N)CC2(F)F [Compound 63] | > 30000 nM | < 5 nM | 3 nM | 28.94% | 
[2H]C1([2H])CN(C(=O)c2ncc(N3CCC4(CC3)Cc3ccc(OC)cc3C4N)nc2N)Cc2sc(N)nc21 (stereo not drawn) [Compound 70] | > 30000 nM | 25 nM |  | 35.04% | 
COc1ccc2c(c1)C(N)C1(CCN(c3cnc(C(=O)N4CCc5nc(N)sc5C4)c(N)n3)CC1)C2 (stereo not drawn) [Compound 82] | > 30000 nM | 25 nM | 4 nM |  | 
[2H]C1([2H])CN(C(=O)c2ncc(N3CCC4(CC3)Cc3ccccc3C4N)nc2N)Cc2sc(N)nc21 (stereo not drawn) [Compound 108] | > 30000 nM | 8 nM | 3 nM |  | 
Nc1nc2c(s1)CN(C(=O)c1ncc(N3CCC4(CC3)Cc3cc(F)ccc3C4N)nc1N)CC2(F)F (stereo not drawn) [Compound 114] | > 30000 nM | 7 nM | 7 nM | 39.69% | 
Nc1nc2c(s1)CN(C(=O)c1cnc(N3CCC4(CC3)Cc3ccc(F)cc3C4N)c(CO)n1)CC2(F)F (stereo not drawn) [Compound 118] |  | 5 nM | 6 nM |  | 
COc1ccc2c(c1)C(N)C1(CCN(c3ncc(C(=O)N4Cc5sc(N)nc5C(F)(F)C4)nc3CO)CC1)C2 (stereo not drawn) [Compound 119] |  | 5 nM | 7 nM |  | 
[2H]C1([2H])CN(C(=O)c2ncc(N3CCC4(CC3)Cc3ccc(OC)cc3C4N)nc2N)Cc2sc(N)nc21 (stereo not drawn) [Compound 122] |  |  | 8 nM |  | 25 nM
COc1ccc2c(c1)C(N)C1(CCN(c3cnc(C(=O)N4Cc5sc(N)nc5C(F)(F)C4)c(N)n3)CC1)C2 (stereo not drawn) [Compound 125] | > 30000 nM |  | 10 nM |  | 
Nc1nc2c(s1)CN(C(=O)c1cnc(N3CCC4(CC3)Cc3ccccc3C4N)c(CO)n1)CC2(F)F (stereo not drawn) [Compound 126] | > 30000 nM |  | 6 nM |  | 
Nc1nc2c(s1)CN(C(=O)c1ncc(N3CCC4(CC3)Cc3ccccc3C4N)nc1N)CC2(F)F (stereo not drawn) [Compound 127] |  | 13 nM | 7 nM |  | 
Nc1nc2c(s1)CN(C(=O)c1ncc(N3CCC4(CC3)Cc3cc(F)ccc3C4N)nc1N)CC2(F)F (stereo not drawn) [Compound 129] |  |  | 5 nM |  | 9 nM
N[C@@H]1c2ccccc2CC12CCN(c1cnc(C(=O)N3CCCc4ncccc43)cn1)CC2 [Compound D1, reference compound] |  | 860 nM | 37 nM |  | 
